From patent publication US10294260B2, “Tetracyclic anthraquinone derivatives” (TIANJIN HEMAY ONCOLOGY PHARMACEUTICAL CO., LTD., priority 2012, dated 2019)

Tests used:
mice of ICR strain = test: Assay on MTD (maximum tolerated dose) in vivo of mice; conditions: for Number of Dead Animals ♂/♀ / Number of animals that died immediately after the injection (a) ♂/♀: male/female; for Number of animals that died immediately after the injection (a) ♂/♀: not counted in mortality rate
Method: Assay on MTD (Maximum Tolerated Dose) In Vivo of Mice
Assay on Maximum Tolerated Dose of Compound
Assay animals: mice of ICR strain with a weight of 18-22 g, purchased from Beijing Vital River Laboratories Limited, License SCXK (jing) 2007-0001.
Administration Regimen: each experimental animal was administered with corresponding dosage of tested substance once by injection of caudal vain every three days. Each dosage was initially designed as 5 times of administration. The specific time of administration depended on the conditions of the animals. It should be carefully observed the behavior conditions of the animals within 2 hours after administration. The animal's behavior was observed every 4 hours in the day of administration. The survival conditions and weight of animals were recorded every day and observed for whether abnormality occurred on the body surface thereof. The experimental animals were sacrificed on 14 day after administration and dissected for observation.
I group: (20 mg/kg) group;
II group: (25 mg/kg) group;
III group: (30 mg/kg) group;
IV group: solvent control group;
There were four groups in total. Each group consisted of five male mice and five female mice.
I group: (40 mg/kg) group;
II group: (45 mg/kg) group;
III group: (50 mg/kg) group;
V group: (60 mg/kg) group;
There were five groups in total. Each group consisted of six male mice and six female mice.

[1] = Storage stability detected by HPLC; format: physicochemical; conditions: sealed and stored for 9 months under refrigeration conditions

SMILES: COc1cccc2c1C(=O)c1c(O)c3c(c(O)c1C2=O)C[C@@](O)(C(=O)CO)C[C@@H]3O[C@H]1C[C@H](n2cccc2)[C@H](O)[C@H](C)O1 [3′-Pyrrolyldoxorubicin]
- Number of Dead Animals ♂/♀ (mice of ICR strain; 20 mg/kg, 4 administrations): 5/5
- Mortality Rate (%) (mice of ICR strain; 20 mg/kg, 4 administrations, total dosage 80 mg/kg): 100%
- Number of Dead Animals ♂/♀ (mice of ICR strain; 25 mg/kg, 4 administrations): 5/5
- Mortality Rate (%) (mice of ICR strain; 25 mg/kg, 4 administrations, total dosage 100 mg/kg): 100%
- Number of Dead Animals ♂/♀ (mice of ICR strain; 30 mg/kg, 3 administrations): 5/5
- Mortality Rate (%) (mice of ICR strain; 30 mg/kg, 3 administrations, total dosage 90 mg/kg): 100%

SMILES: COc1cccc2c1C(=O)c1c(O)c3c(c(O)c1C2=O)CC(O)(C(=O)COC(=O)CCC(=O)O)CC3OC1CC(n2cccc2)C(O)C(C)O1 (centres unmarked) [Compound A, 3′-pyrrolyldoxorubicin-14-oxo-succinic acid monoester]
- Number of Dead Animals ♂/♀ (mice of ICR strain; 30 mg/kg, 5 administrations): 0/1
- Mortality Rate (%) (mice of ICR strain; 30 mg/kg, 5 administrations, total dosage 150 mg/kg): 10%
- Number of Dead Animals ♂/♀ (mice of ICR strain; 40 mg/kg, 5 administrations): 3/2
- Mortality Rate (%) (mice of ICR strain; 40 mg/kg, 5 administrations, total dosage 200 mg/kg): 50%
- Number of Dead Animals ♂/♀ (mice of ICR strain; 50 mg/kg, 5 administrations): 5/5
- Mortality Rate (%) (mice of ICR strain; 50 mg/kg, 5 administrations, total dosage 250 mg/kg): 100%
- Number of Dead Animals ♂/♀ (mice of ICR strain; 60 mg/kg, 5 administrations): 5/5
- Mortality Rate (%) (mice of ICR strain; 60 mg/kg, 5 administrations, total dosage 300 mg/kg): 100%

SMILES: COc1cccc2c1C(=O)c1c(O)c3c(c(O)c1C2=O)CC(O)(C(=O)COC(=O)CCC(=O)NCCN1CCOCC1)CC3O[C@H]1C[C@H](n2cccc2)[C@H](O)[C@H](C)O1.O=P(O)(O)O (stereo partly drawn) [Example 96, 10-((3′-(Pyrrol-1-yl)-2′,3′,6′-Trideoxy-Alpha-L-Lyxo-Hexylpyranyl)Oxy)-7,8,9,10-Tetrahydro-6,8,11-Trihydroxy-13-Oxo-14-(4-((2-(Morpholin-1-yl)Ethyl)Amino)-4-Oxo-Butyrato)-1-Methoxy-5,12-Naphthalenedione Phosphate]
- stability (degraded product by HPLC) [1]: No obvious degraded product was observed
- Number of Dead Animals ♂/♀ (mice of ICR strain; 40 mg/kg, 5 administrations): 0/1
- Number of Dead Animals ♂/♀ (mice of ICR strain; 45 mg/kg, 5 administrations): 0/0
- Number of animals that died immediately after the injection (a) ♂/♀ (mice of ICR strain; 45 mg/kg, 5 administrations): 1/2
- Number of Dead Animals ♂/♀ (mice of ICR strain; 50 mg/kg, 5 administrations): 0/0
- Number of animals that died immediately after the injection (a) ♂/♀ (mice of ICR strain; 50 mg/kg, 5 administrations): 1/1
- Number of Dead Animals ♂/♀ (mice of ICR strain; 55 mg/kg, 5 administrations): 5/4
- Number of animals that died immediately after the injection (a) ♂/♀ (mice of ICR strain; 55 mg/kg, 5 administrations): 5/3
- Number of Dead Animals ♂/♀ (mice of ICR strain; 60 mg/kg, 5 administrations): 3/4
